For assay [1], the target named is T1, SdeC (Legionella pneumophila, UniProt Q5ZTK8).
T1 construct: gene lpg2153
Briefly: biochemical.

Assay [2] has as its target T1, SdeC. Put plainly: biochemical. This is another data set of the same source.

Where two headings read alike, the source gives them in different places.

As to `NC(=O)c1ccc[n+]([C@@H]2O[C@H](COP(=O)([O-])OP(=O)(O)OC[C@H]3O[C@@H](n4cnc5c(N)ncnc54)[C@H](O)[C@@H]3O)[C@@H](O)[C@H]2O)c1` [NAD^+], the IC50 at SdeC [1] was 27.7 ± 1.9 µM.

As for `NC(=O)c1ccc[n+]([C@@H]2S[C@H](COP(=O)(O)OP(=O)([O-])OC[C@H]3O[C@@H](n4cnc5c(N)ncnc54)[C@H](O)[C@@H]3O)[C@@H](O)[C@H]2O)c1` [compound 2, S-NAD^+], half-maximal inhibition against SdeC [2] (IC50) was put at 27.9 µM.

On to `NC(=O)c1cccc([C@@H]2O[C@H](COP(=O)(O)OP(=O)(O)OC[C@H]3O[C@@H](n4cnc5c(N)ncnc54)[C@H](O)[C@@H]3O)[C@@H](O)[C@H]2O)c1` [compound 3, BAD], for which it took 38.9 µM to reach half-maximal inhibition against SdeC [2] (IC50).

The IC50 is the concentration needed to halve the response being measured.

For the origin of these results see PMC7687180 (Chembiochem, 2020).
